This note sets out measurements from US20100137313A1 (ASTRAZENECA AB, priority 2008, published 2010).

Sequence of S. pneumoniae Topoisomerase IV ATPase (ParE) (Q59961 whole entry): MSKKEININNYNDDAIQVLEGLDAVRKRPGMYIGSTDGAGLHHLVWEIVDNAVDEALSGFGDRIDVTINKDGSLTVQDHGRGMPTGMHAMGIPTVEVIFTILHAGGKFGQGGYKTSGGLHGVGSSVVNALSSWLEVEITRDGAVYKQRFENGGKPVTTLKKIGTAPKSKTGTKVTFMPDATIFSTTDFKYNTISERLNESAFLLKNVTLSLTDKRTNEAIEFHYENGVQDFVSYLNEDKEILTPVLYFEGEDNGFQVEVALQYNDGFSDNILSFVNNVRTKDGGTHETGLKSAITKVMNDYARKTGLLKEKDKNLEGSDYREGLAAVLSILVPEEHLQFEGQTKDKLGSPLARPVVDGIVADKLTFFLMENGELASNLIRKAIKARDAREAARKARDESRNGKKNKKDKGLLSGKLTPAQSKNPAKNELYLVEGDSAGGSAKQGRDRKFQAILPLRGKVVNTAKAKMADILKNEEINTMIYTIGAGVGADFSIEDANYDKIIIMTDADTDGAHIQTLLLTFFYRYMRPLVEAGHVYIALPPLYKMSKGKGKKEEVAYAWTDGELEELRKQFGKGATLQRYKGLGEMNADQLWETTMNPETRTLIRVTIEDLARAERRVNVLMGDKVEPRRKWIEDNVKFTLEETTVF

In this assay the target is S. pneumoniae Topoisomerase IV ATPase (ParE) (Streptococcus pneumoniae serotype 4, UniProt Q59961). The assay is described as follows: S. pneumoniae Topoisomerase IV ATPase inhibition. The assay is classed as biochemical. Particulars: values marked * are an average of two or more data points, read-out: % Inh (13 μM) of S. pneumoniae Topoisomerase IV ATPase. In outline:
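Phosphate release by ParE ATPase from S. pneumoniae read colorimetrically (malachite green, 650 nm), enzyme 1.25 nM, ATP 160 μM, salmon sperm DNA present, buffer 20 mM Tris pH 8.0 with 8 mM MgCl2. IC50 over 10 compound concentrations, EDTA (20 μM) and DMSO controls defining inhibition range.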
Turning to `CNC(=O)c1cc(-c2cnc(Nc3cc(OC)cc(OC)c3)nc2-n2ccc(C(F)(F)F)n2)cnc1OC` [Example 809, 5-{2-[(3,5-dimethoxyphenyl)amino]-4-[3-(trifluoromethyl)-1H-pyrazol-1-yl]pyrimidin-5-yl}-2-methoxy-N-methylpyridine-3-carboxamide], the inhibition at 13 µM was found to be 100%.

`Cn1cncc1CNc1nc(Nc2ccc(F)c(Cl)c2)ncc1-c1cccc(/C=C/C(=O)O)c1` [Example 296, (E)-3-(3-(2-(3-chloro-4-fluorophenylamino)-4-((1-methyl-1H-imidazol-5-yl)methylamino)pyrimidin-5-yl)phenyl)acrylic acid]: the inhibition at 13 µM came out at 77.6%.

Regarding `CN(C(=O)c1cccc(-c2cnc(Nc3ccc(F)c(Cl)c3)nc2-n2ccc(C(F)(F)F)n2)c1)S(C)(=O)=O` [Example 878, 3-(2-(3-chloro-4-fluorophenylamino)-4-(3-(trifluoromethyl)-1H-pyrazol-1-yl)pyrimidin-5-yl)-N-methyl-N-(methylsulfonyl)benzamide], the inhibition at 13 µM is 88%.

For `CONC(=O)c1cncc(-c2cnc(Nc3cc(OC)cc(OC)c3)nc2-n2nc(C(F)(F)F)cc2C)c1` [Example 681, 5-{2-[(3,5-dimethoxyphenyl)amino]-4-[5-methyl-3-(trifluoromethyl)-1H-pyrazol-1-yl]pyrimidin-5-yl}-N-methoxypyridine-3-carboxamide], the inhibition at 13 µM worked out at 100%. Regarding `CONC(=O)c1cc(-c2cnc(Nc3ccc(F)c(Cl)c3)nc2-n2ccc(C(F)(F)F)n2)cnc1OC` [Example 1101, 5-(2-(3-chloro-4-fluorophenylamino)-4-(3-(trifluoromethyl)-1H-pyrazol-1-yl)pyrimidin-5-yl)-N,2-dimethoxynicotinamide], the inhibition at 13 µM stood at 82%.

With `N#Cc1cc(F)cc(Nc2ncc(-c3cccc(/C=C/C(=O)O)c3)c(N3CCOCC3)n2)c1` [Example 407, (E)-3-{3-[2-(3-Cyano-5-fluoro-phenylamino)-4-morpholin-4-yl-pyrimidin-5-yl]-phenyl}-acrylic acid], the inhibition at 13 µM is 86%. For `CCOC(=O)/C=C/c1cccc(-c2cnc(Nc3ccc(F)c(Cl)c3)nc2N2CCOC(CO)C2)c1` (stereo not shown) [Example 977, (E)-ethyl 3-(3-(2-(3-chloro-4-fluorophenylamino)-4-(2-(hydroxymethyl)morpholino)pyrimidin-5-yl)phenyl)acrylate] the value was 74%; for `Cc1ccc(F)c(Nc2ncc(-c3cncc(C(=O)O)c3)c(-n3nc(C(F)(F)F)cc3C)n2)c1` [Example 773, 5-{2-[(2-fluoro-5-methylphenyl)-amino]-4-[5-methyl-3-(trifluoromethyl)-1H-pyrazol-1-yl]pyrimidin-5-yl}pyridine-3-carboxylic acid], 55%. Consider `CN(C)CCCNc1nc(Nc2ccc(F)c(Cl)c2)ncc1-c1cccc(/C=C/C(=O)O)c1` [Example 29, (2E)-3-[3-(2-[(3-chloro-4-fluorophenyl)amino]-4-{[3-(dimethylamino)propyl]-amino}pyrimidin-5-yl)phenyl]prop-2-enoic acid], for which the inhibition at 13 µM came to 99.7%. Consider `Cc1cc(F)cc(Nc2ncc(-c3cncc(C(=O)O)c3)c(-n3nc(C(F)(F)F)cc3C)n2)c1` [Example 771, 5-{2-[(3-fluoro-5-methylphenyl)-amino]-4-[5-methyl-3-(trifluoromethyl)-1H-pyrazol-1-yl]pyrimidin-5-yl}pyridine-3-carboxylic acid], for which the inhibition at 13 µM stood at 100%. For `COc1cc(Cl)cc(Nc2ncc(-c3cncc(C(=O)O)c3)c(-n3nc(C(F)(F)F)cc3C)n2)c1` [Example 775, 5-{2-[(3-chloro-5-methoxyphenyl)-amino]-4-[5-methyl-3-(trifluoromethyl)-1H-pyrazol-1-yl]pyrimidin-5-yl}pyridine-3-carboxylic acid] the value was 100%; for `CCOC(=O)c1cncc(-c2cnc(Nc3ccc(F)c(Cl)c3)nc2NCCCNC(=O)c2cnc(C)cn2)c1` [Example 141, ethyl 5-(2-(3-chloro-4-fluorophenylamino)-4-(3-(5-methylpyrazine-2-carboxamido)propyl-amino)pyrimidin-5-yl)nicotinate], 63.3%; for `Fc1ccc(Nc2ncc(-c3cncnc3)c(NCCc3ccccn3)n2)cc1Cl` [Example 44, N^2-(3-chloro-4-fluorophenyl)-N^4-(2-pyridin-2-ylethyl)-5-pyrimidin-5-ylpyrimidine-2,4-diamine], 78.4%. Consider `CONC(=O)c1cncc(-c2cnc(Nc3ccc(F)c(Cl)c3)nc2NCCc2cccnc2)c1` [Example 476, 5-(2-[(3-chloro-4-fluorophenyl)amino]-4-{[2-(pyridin-3-yl)ethyl]amino}pyrimidin-5-yl)-N-methoxypyridine-3-carboxamide], for which the inhibition at 13 µM stood at 100%.

Regarding `NC(=O)c1cccc(-c2cnc(Nc3ccc(F)c(Cl)c3)nc2-n2ccc(C(F)(F)F)n2)c1` [Example 1147, 3-(2-(3-chloro-4-fluorophenylamino)-4-(3-(trifluoromethyl)-1H-pyrazol-1-yl)pyrimidin-5-yl)benzamide], the inhibition at 13 µM was found to be 100%. As to `CCOC(=O)c1cc2cc(-c3cnc(Nc4ccc(F)c(Cl)c4)nc3N3CCOCC3)ccc2[nH]1` [Example 1054, Ethyl 5-(2-(3-chloro-4-fluorophenylamino)-4-morpholinopyrimidin-5-yl)-1H-indole-2-carboxylate], the inhibition at 13 µM came out at 0%. For the compound `CCCNc1nc(Nc2ccc(F)c(Cl)c2)ncc1-c1cncc(C(=O)O)c1` [Example 218, 5-[2-(3-Chloro-4-fluoro-phenylamino)-4-propylamino-pyrimidin-5-yl]-nicotinic acid], the inhibition at 13 µM was 80.9%. In the case of `COc1cc(CNc2nc(Nc3ccc(F)c(Cl)c3)ncc2-c2cnc(OC)nc2)cc(OC)c1` [Example 464, N2-(3-chloro-4-fluorophenyl)-N4-(3,5-dimethoxybenzyl)-2′-methoxy-5,5′-bipyrimidin-2,4-diamine], the inhibition at 13 µM was determined as 36%. For the compound `O=C(O)/C=C/c1cccc(-c2cnc(Nc3ccc(F)c(Cl)c3)nc2NCCc2cn[nH]c2)c1` [Example 268, (2E)-3-[3-(2-[(3-chloro-4-fluorophenyl)amino]-4-{[2-(1H-pyrazol-4-yl)ethyl]amino}pyrimidin-5-yl)phenyl]prop-2-enoic acid], the inhibition at 13 µM came out at 83%. As for `Fc1ccc(Nc2ncc(-c3nc4ccccc4[nH]3)c(N3CCOCC3)n2)cc1Cl` [Example 497, 5-(1H-benzimidazol-2-yl)-N-(3-chloro-4-fluorophenyl)-4-(morpholin-4-yl)pyrimidin-2-amine], the inhibition at 13 µM turned out to be 61%.

As for `COC(=O)CC(=O)c1cncc(-c2cnc(Nc3ccc(F)c(Cl)c3)nc2N2CCOCC2)c1` [Example 1039, Methyl 3-(5-(2-(3-chloro-4-fluorophenylamino)-4-morpholinopyrimidin-5-yl)pyridin-3-yl)-3-oxopropanoate], the inhibition at 13 µM was determined as 90%. Consider `COc1cc(F)cc(Nc2ncc(-c3cncc(C(=O)O)c3)c(N3CCOCC3)n2)c1` [Example 394, 5-[2-(3-Fluoro-5-methoxy-phenylamino)-4-morpholino-4-yl-pyrimidin-5-yl]-nicotinic acid], for which the inhibition at 13 µM came to 94%. Next, `Cc1cc(C(F)(F)F)nn1-c1nc(Nc2ccc(F)c(Cl)c2)ncc1-c1cncc(S(=O)(=O)N2CCOCC2)c1` [Example 1036]: 100%; `CC(C)OCCNc1nc(Nc2ccc(F)c(Cl)c2)ncc1-c1cncc(C(=O)O)c1` [Example 236, 5-[2-[(3-chloro-4-fluorophenyl)amino]-4-(2-propan-2-yloxyethyolamino)pyrimidin-5-yl]pyridine-3-carboxylic acid]: 73.6%; `COCCCNc1nc(Nc2ccc(F)c(Cl)c2)ncc1-c1cncc(C(=O)CC(=O)OC)c1` [Example 1040, Methyl 3-(5-(2-(3-chloro-4-fluorophenylamino)-4-(3-methoxypropylamino)pyrimidin-5-yl)pyridin-3-yl)-3-oxopropanoate]: 86%.

On to `COc1cc(C)cc(Nc2ncc(-c3cnc(OC)c(C(=O)O)c3)c(-n3ccc(C(F)(F)F)n3)n2)c1` [Example 760], for which the inhibition at 13 µM amounted to 100%.

Regarding `COc1cc(F)cc(Nc2ncc(-c3cncc(C(=O)O)c3)c(-n3ccc(C(F)(F)F)n3)n2)c1` [Example 914, 5-(2-(3-fluoro-5-methoxyphenylamino)-4-(3-(trifluoromthyl)-1H-pyrazol-1-yl)pyrimidin-5-yl)nicotinic acid], the inhibition at 13 µM amounted to 100%. On to `Cc1noc(CCNC(=O)c2cncc(-c3cnc(Nc4ccc(F)c(Cl)c4)nc3-n3nc(C(F)(F)F)cc3C)c2)n1` [Example 929, 5-(2-(3-chloro-4-fluorophenylamino)-4-(5-methyl-3-(trifluoromethyl)-1H-pyrazol-1-yl)pyrimidin-5-yl)-N-(2-(3-methyl-1,2,4-oxadiazol-5-yl)ethyl)nicotinamide], for which the inhibition at 13 µM stood at 82%. As for `O=C(O)c1cncc(-c2cnc(Nc3ccc(F)c(Cl)c3)nc2-n2nccn2)c1` [Example 317, 5-{4-(2H-1,2,3-triazol-2-yl)-2-[(3-chloro-4-fluorophenyl)amino]pyrimidin-5-yl}pyridine-3-carboxylic acid], the inhibition at 13 µM is 84.9%. Next, `COCC(COC)Nc1nc(Nc2ccc(F)c(Cl)c2)ncc1-c1cncc(C(=O)O)c1` [Example 283, 5-(2-(3-chloro-4-fluorophenylamino)-4-(1,3-dimethoxypropan-2-ylamino)pyrimidin-5-yl)nicotinic acid]: 89.9%; `O=C(O)c1cncc(-c2cnc(Nc3ccc(F)c(Cl)c3)nc2NCCOc2ccccc2)c1` [Example 239, 5-[2-[(3-chloro-4-fluorophenyl)amino]-4-(2-phenoxyethylamino)-pyrimidin-5-yl]pyridine-3-carboxylic acid]: 85.1%.
